The source of these data is patent US7951831B2, “Use of inhibitors of soluble epoxide hydrolase to synergize activity of COX and 5-LOX inhibitors” (The Regents of the University of California, priority 2005, dated 2011).

One series is described as follows: metabolic stability. In kind it is in vitro ADME.
The target of the next series is T1, sEH (Homo sapiens, UniProt P34913).
T1 sequence (P34913 1-555): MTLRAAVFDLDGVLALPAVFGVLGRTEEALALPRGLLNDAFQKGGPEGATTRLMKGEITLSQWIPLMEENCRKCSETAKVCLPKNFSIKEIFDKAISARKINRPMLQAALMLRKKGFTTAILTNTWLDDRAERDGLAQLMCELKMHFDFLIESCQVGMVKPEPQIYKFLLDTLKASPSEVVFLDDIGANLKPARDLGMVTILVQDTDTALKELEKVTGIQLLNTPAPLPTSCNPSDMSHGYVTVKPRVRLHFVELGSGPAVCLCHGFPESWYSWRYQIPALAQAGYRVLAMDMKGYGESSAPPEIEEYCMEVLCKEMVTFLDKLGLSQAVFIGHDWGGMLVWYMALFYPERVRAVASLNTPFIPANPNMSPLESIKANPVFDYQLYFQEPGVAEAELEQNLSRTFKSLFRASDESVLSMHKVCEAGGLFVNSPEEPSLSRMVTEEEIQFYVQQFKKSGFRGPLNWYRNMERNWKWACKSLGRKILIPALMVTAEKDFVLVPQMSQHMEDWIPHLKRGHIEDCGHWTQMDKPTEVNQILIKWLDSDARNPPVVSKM
Briefly: inhibition of soluble epoxide hydrolase. In kind it is biochemical. From the text:
Any of a number of standard assays for determining epoxide hydrolase activity can be used to determine inhibition of sEH. For example, suitable assays are described in Gill, et al., Anal Biochem 131, 273-282 (1983); and Borhan, et al., Analytical Biochemistry 231, 188-200 (1995)). Suitable in vitro assays are described in Zeldin et al., J Biol. Chem. 268:6402-6407 (1993). Suitable in vivo assays are described in Zeldin et al., Arch Biochem Biophys 330:87-96 (1996). […]
The enzyme also can be detected based on the binding of specific ligands to the catalytic site which either immobilize the enzyme or label it with a probe such as dansyl, fluoracein, luciferase, green fluorescent protein or other reagent. […] The enzyme also can be detected based on the generation of fluorescent products following the hydrolysis of the epoxide. […]

The subject of series [1] is arachidonic acid metabolites in mouse plasma. Kind of series: plasma oxylipin metabolites in mice exposed to LPS (LC-MS/MS). In kind it is in vivo. The settings on record: AUDA-BE 20 mg/Kg alone.
In the next series the test system is COX-2 protein. Briefly: Western immunoblot of COX-2 protein in livers of mice. In kind it is in vivo. The settings on record: liver; LPS 10 mg/Kg i.p.; COX-2 inhibitor 50 mg/Kg or AUDA-BE 20 mg/Kg sc (FIG. 8). (A western blot detects proteins with antibodies after separation by electrophoresis.)
The nature of series [2]: tail flick assay, without induction of pain. In kind it is in vivo, mice. Conditions: sc in oleic oil, responses after 90 minutes; no induction of pain. As for the experimental part: Briefly, mice are kept under 12:12 h light: dark cycle and water and food is supplied ad libitum. Mice are trained for three days to the experimental chambers in 30 min sessions each time. The next day baseline readings are taken. Vehicle control (oleic oil) is then injected sc in the next day and measurements are taken. Two days later, animals are injected through the sc route with test compounds dissolved in the oil vehicle and their responses are recorded after 90 minutes.
Tail flick and hind paw withdrawal latency tests are conducted according to D'Amour and Smith, J Pharmacol Exp Ther 72:74-9 (1941), and Woolfe and McDonald, J Pharmacol Exp Ther, 80:300-7 (1944). In tail flick assays, mice are placed in restrainers and left undisturbed for 30 minutes. Readings are then taken by placing the posterior end of the tail onto a tail flick apparatus that has a radiant heat source set to 55 C. Five measurements per animal are taken at two-minute intervals. The latency to move the tail is recorded. In hind paw withdrawal assays, the mice are placed in an experimental chamber with a glass surface. The temperature of this surface is kept constant at 30° C. After a 30-minute period of acclimation, radiant heat is applied to the plantar surface of the hind paw. Five measurements per animal are taken at two-minute intervals. The latency to move the paw is recorded. […]
On the technique in general: Hot-plate and tail-flick tests time the reaction to a heat stimulus.

The subject of another series is COX-2 / COX-1. Conditions: the smaller the ratio, the more specific for COX-2; cited from earlier work.

Method for COX-2 protein: Horizontal axis: treatment administered to the mice. First column: vehicle (oleic acid, administered subcutaneously (“s.c.” or “sc”)). Second column: lipopolysaccharide (“LPS”, 10 mg/Kg i.p.) and vehicle. […] Fifth column: AUDA-BE (20 mg/Kg sc). Sixth column: AUDA-BE (20 mg/Kg sc)+LPS (10 mg/Kg i.p.). […] Vertical axis: depicts percentage of protein induced in test animals receiving designated treatment compared to that of control mice receiving vehicle without LPS.
Western immunoblot analysis was performed with proteins isolated from liver to detect cycloxygenase 2 (COX-2). The isolated proteins were separated by electrophoresis on 10% SDS-PAGE and then transferred onto polyvinylidene fluoride membranes (Immobilon P, Millipore Corp., Bedford, Mass.). […] The membranes were incubated with rabbit anti-mouse HRP-linked IgG (Amersham, Arlington Heights, Ill.) at 1:10,000 dilution, washed, then contacted with secondary antibody and visualized using SuperSignal® West Femto Maximum Sensitivity Substrate (Pierce Biotechnology, Inc., Rockford, Ill.), a chemiluminiscence detection system, per manufacturer's instructions. The immunodetectable bands were quantified by densitometry with Kodak 1.D Image Analysis System v.

Turning to `CCCCCCCCCCCCNC(=O)NC12CC3CC(CC(C3)C1)C2` [ADU, N-Adamantyl-N′-dodecyl urea], the metabolic stability result in the series “metabolic stability” is listed as “metabolically stable”. Moreover, the “activity as an inhibitor of sEH” value on sEH is recorded as “particularly high activity”.

Regarding `CCCCOC(=O)CCCCCCCCCCCNC(=O)NC12CC3CC(CC(C3)C1)C2` [AUDA-BE, 12-(3-adamantane-1-yl-ureido)-dodecanoic acid butyl ester], in series [1], the “5-HETE, percentage of metabolite compared to control mice receiving vehicle without LPS” value is on record as 262±21%; the “6-keto-PGF1a, percentage of metabolite compared to control mice receiving vehicle without LPS” value was 128±6%; the “PGE2, percentage of metabolite compared to control mice receiving vehicle without LPS” value amounted to 241±2%; the “ΣDHOME, percentage of metabolite compared to control mice receiving vehicle without LPS” value is recorded as 141±15%. In series [1], the “ΣEpOME, percentage of metabolite compared to control mice receiving vehicle without LPS” value was 122±8%. The “amount of COX-2 relative to control mice” value with COX-2 protein is recorded as “about 4 times”. Besides, the “analgesic effect in tail flick assay” value in series [2] is “slight but significant analgesic effect”.

Consider `CC(=O)Oc1ccccc1C(=O)O` [Aspirin, aspirin], for which the “COX-2 (IC50)/COX-1 (IC50) ratio” value in the series with COX-2 / COX-1 is reported as 0.32.
